Reference: US8679832B2, “Detection of protein translocation by beta-galactosidase reporter fragment complementation” (The Board of Trustees of the Leland Stanford Junior …, priority 2004, dated 2014)
Where two headings read alike, the source gives them in different places.

What was measured:
C1A domain from PKCγ = target: T1, C1A domain from PKCγ (Homo sapiens, UniProt P05129); test: Plasma membrane translocation assay: C1A domain of PKCγ fused to GFP-α mutants, tEGFR-ω in NIH 3T3 cells, β-galactosidase complementation; assay type: cell-based
T1 construct: the C1A domain from PKCγ was fused to four of the GFP-α point mutants; β-galactosidase α peptide carrying H31R, E41Q, N39D or N39Q (β-gal numbering; the mutation lies in the tag, not in PKCγ); expressed in transfected cells; host or cells: NIH 3T3 cells expressing tEGFR-ω
Excerpt: Creation of a plasma membrane translocation assay required expression of the ω fragment at the membrane which was achieved using the tEGFR-ω construct. When the target protein-α fusion move from the cytosol to the membrane, the local increased concentration of a peptide should drive complementation as illustrated in FIG. 4B. To determine which of the mutants would work best in this type of assay the C1A domain from PKCγ was fused to four of the GFP-α point mutants that complemented to varying degrees, H31R, E41Q, N39D, and N39Q. […] The ω fragment was tethered to the plasma membrane using the extracellular and transmembrane regions of the EGFR. Four of the mutants were fused to the C1A domain of PKCγ and co-expressed with the tEGFR. Their responses to 1 μM PMA for 20 min were expressed as a fold induction over background. The C1A domain efficiently translocated to the plasma membrane when exposed to phorbol esters such as PMA (FIG. 4C). The fusion proteins were expressed in NIH 3T3 cells expressing the tEGFR-ω, and assayed for increased complementation in the presence of PMA for 30 min.
The translocation of the C1A domain in response to PMA stimulation has been extensively characterized by fusion to GFP. The largest increase in fluorescence at the plasma membrane in response to PMA was reported to be 70% with the lowest dose of PMA detected using these methods being between 10 and 100 nM. […] Importantly, the requirement of the co fragment for complementation ensured that enzyme activity was only generated where the co-fragment was localized. Thus, the assay measured increases in protein concentration at a specific location in the cell.

C1A domain = target: T2, C1A domain (Homo sapiens, UniProt P05129); conditions: C1A-GFP, response to PMA, reported; cited from earlier work
T2 construct: The translocation of the C1A domain in response to PMA stimulation has been extensively characterized by fusion to GFP

glucocorticoid receptor = glucocorticoid receptor (Homo sapiens, UniProt P04150); conditions: 30 min of treatment
Sequence of glucocorticoid receptor (P04150 whole entry, species assumed, the tested form may be a part): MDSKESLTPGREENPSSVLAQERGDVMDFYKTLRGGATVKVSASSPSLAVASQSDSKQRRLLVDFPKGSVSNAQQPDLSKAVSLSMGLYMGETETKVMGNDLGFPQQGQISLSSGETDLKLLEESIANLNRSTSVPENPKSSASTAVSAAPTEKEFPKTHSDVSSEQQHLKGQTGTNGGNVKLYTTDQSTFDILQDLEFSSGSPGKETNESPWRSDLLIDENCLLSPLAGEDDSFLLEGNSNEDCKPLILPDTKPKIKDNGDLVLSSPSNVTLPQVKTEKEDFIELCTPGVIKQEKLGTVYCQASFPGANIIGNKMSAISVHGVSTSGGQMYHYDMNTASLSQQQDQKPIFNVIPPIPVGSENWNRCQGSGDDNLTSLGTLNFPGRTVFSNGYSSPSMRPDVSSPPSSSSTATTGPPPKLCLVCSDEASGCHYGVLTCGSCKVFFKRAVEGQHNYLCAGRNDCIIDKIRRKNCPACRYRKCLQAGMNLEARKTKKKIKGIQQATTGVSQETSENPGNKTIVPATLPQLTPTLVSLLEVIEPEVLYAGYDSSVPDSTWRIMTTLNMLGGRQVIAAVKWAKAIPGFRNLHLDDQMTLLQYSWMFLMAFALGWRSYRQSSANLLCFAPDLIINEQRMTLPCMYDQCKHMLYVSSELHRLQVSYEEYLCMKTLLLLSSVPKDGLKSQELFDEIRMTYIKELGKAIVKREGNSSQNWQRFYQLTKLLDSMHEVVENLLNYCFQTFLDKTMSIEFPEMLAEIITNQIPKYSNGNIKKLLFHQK
Excerpt: To test the applicability of the system to a physiological translocation event the glucocoticoid receptor was fused to the amino-terminus of the GFP-α fusion. The glucocoticoid receptor is a nuclear steroid hormone receptor that undergoes a robust nuclear translocation in response to treatment with various hormones including dexamethasone. This construct was stably introduced into both the co-NLS and tEGFR-ω cell lines then assayed for changes in β-galactosidase activity upon treatment of the cells with dexamethasone using the luminescent β-galactosidase substrate.
Cell lines shown in FIG. 3 A were treated with varying concentrations of dexamethasone and assayed over time. […] The GR-α cell lines were treated with 1 μM dexamethasone (red) for 3 hours then stained with the luorescent β-galactosidase DDAO substrate and analyzed by low cytometry.

[1] = tested on: Crm1 mediated nuclear export; test: Nuclear translocation gain of signal assay: NES-GFP-α-NLS co-expressed with ω-NLS, β-galactosidase complementation, luminescent substrate; assay type: cell-based, mouse; conditions: leptomycin B for 2 hours, C2C12 myoblasts
Excerpt: In order to utilize a complementation as a method of quantitatively assessing nuclear translocation events, two systems were designed that are distinct in the localization of the ω-fragment. FIG. 2A is a schematic showing the design of the nuclear translocation assay. In the let panel, the ω fragment is localized to the nucleus with a nuclear localization signal (NLS) and the cytosolic protein of interest is fused to the minimal α peptide. Upon stimulation the α fusion moves to the nucleus and complements the co, increasing β-galactosidase activity. In the right panel, the co fragment is tethered to the plasma membrane using the extracellular and transmembrane regions of EGFR. The cytosolic α-fusion complements spontaneously until stimulation when it translocates to the nucleus which results in a loss of enzyme activity.
The gain of signal assay (FIG. 2A left panel) localized the ω to the nucleus through fusion to a triplet SV40 nuclear localization signal (NLS). Thus, an increase in β-galactosidase activity should be observed when the target protein-α fusion moves from the cytosol to the nucleus. The loss of signal assay (FIG. 2 A right panel) localized the ω-fragment to the plasma membrane through fusion to the extracellular and transmembrane regions of the EGF receptor (tEGFR). […]

PH domain of AKT = test: AKT PH domain plasma membrane translocation: AKT-GFP-α in 3T3 fibroblasts with tEGFR-ω, luminescent β-galactosidase assay, 96-well; assay type: cell-based; conditions: 50 ng/ml PDGF, insulin, or sorbitol; 3T3 cells; maximal over time course
Method: To test whether the system was robust enough to monitor translocation events in response to physiologically relevant stimuli, this system was applied to the translocation of the PH domain of AKT. […] The PH domain of AKT was fused to the GFP-α chimera and expressed in 3T3 fibroblasts harboring the tEGFR-ω protein. […] The cells were stimulated under various conditions, and the translocation of the PH domain was assayed in 96-well dishes by a luminescent measure of β-galactosidase activity.

With `CCCCCCCCCCCCCC(=O)O[C@@H]1[C@@H](C)[C@@]2(O)[C@@H](C=C(CO)C[C@]3(O)C(=O)C(C)=C[C@@H]23)[C@@H]2C(C)(C)[C@]12OC(C)=O` [PMA] the increase in signal (C1A domain from PKCγ; 800 nM PMA (saturating)) was 1000%, the “saturating PMA concentration” value (C1A domain from PKCγ; C1A domain membrane translocation assay) was 800 nM and the “increases in enzyme activity in the presence of PMA” value (C1A domain from PKCγ; β-galactosidase complementation, H31R) was 700-1000%. For the same compound, the “largest increase in fluorescence at the plasma membrane” value (C1A domain) was 70%.
In the case of `C[C@@H]1C[C@H]2[C@@H]3CCC4=CC(=O)C=C[C@]4(C)[C@@]3(F)[C@@H](O)C[C@]2(C)[C@@]1(O)C(=O)CO` [dexamethasone], the “difference in β-galactosidase activity” value (glucocorticoid receptor; gain of signal) is reported as 100% and the “difference in β-galactosidase activity” value (glucocorticoid receptor; loss of signal) is reported as 25%.
In the case of `CCC(=C/[C@H](C)C/C=C/C(C)=C/[C@@H](C)C(=O)[C@@H](C)[C@H](O)[C@@H](C)C/C(C)=C/C(=O)O)/C=C/[C@@H]1OC(=O)C=C[C@@H]1C` [leptomycin B], the “increase in β-galactosidase activity” value [1] is reported as 3.5 fold.
With `OC[C@@H](O)[C@@H](O)[C@H](O)[C@@H](O)CO` [sorbitol] the “increase in β-galactosidase activity” value (PH domain of AKT) was 8 fold.
In the case of “H31R: α peptide of β-galactosidase with H31R mutation, low affinity (MGVITDSLAVVLQRRDWENPGVTQLNRLAARPPFASWRNSEEARTDRPSQQL; E. coli; PEPTIDE (1)..(52) alpha peptide (H31R))”, the “induction of β-galactosidase activity in the presence of PMA” value (C1A domain from PKCγ; C1A-GFP-α mutant, 1 μM PMA, NIH 3T3 tEGFR-ω) is reported as 7 fold.
With platelet-derived growth factor [PDGF] the “increase in β-galactosidase activity” value (PH domain of AKT) was 5 fold.
For “wt peptide: wild type α peptide of β-galactosidase (MGVITDSLAVVLQRRDWENPGVTQLNRLAAHPPFASWRNSEEARTDRPSQQL; E. coli; PEPTIDE (1)..(52) alpha peptide (wildtype))”, the “increase in β-galactosidase activity in the presence of PMA” value (C1A domain from PKCγ; C1A-GFP-α wt peptide, PMA, NIH 3T3 tEGFR-ω) was less than 10%.
